Experimental data: US10294234B2, “HIV inhibitor compounds” (priority 2017, dated 2019)
Like-named read-outs stand apart in the source and are kept apart here.

How the values were obtained:
[1] = system: HIV-1 (IIIB) in MT-4 cells; experiment: MT-4 HIV assay; format: cell-based; conditions: HIV-1 (IIIB), MT-4 cells, 5 days, Cell Titer Glo, read-out: EC50
How it was run: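 Antiviral activity was read by Cell Titer Glo after a 5-day, 37 °C culture of MT-4 cells pre-infected with a 1:250 dilution of HIV-1 (IIIB). Compounds were tested as threefold dilution series in complete RPMI. Controls were no drug, mock infection and 5 uM AZT.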

in vivo = conditions: rat, in vivo; for Vd / RAT PO F: male, SD; for Vd / RAT IV CL / RAT IV T1/2: iv; for RAT PO F: 2.5 mg/kg
How it was run: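 Male SD rats (n=3/group, 0.27–0.32 kg), fasted overnight, given 0.5 or 1.0 mg/kg by 30-min IV infusion, or by oral gavage. Serial plasma samples (EDTA-K2) over 24 h measured by LC/MS/MS; non-compartmental PK analysis.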

[2] = 3H Human Predicted Clearance Assay (tritiated analogs); format: in vitro ADME; design: unit not given here
Experimental: 3H Human Predicted Clearance Assay:
For certain compounds, tritiated analogs (H^3) were prepared to further determined their human predicted clearance with increased resolution. Those studies were performed as described above using the tritiated analogs. Data from those compounds is found in Table 2 below and reported in FIG. 1 (note ATV and DRV were not tritiated).

[3] = How it was run: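 Depletion measured by LC/MS/MS at 2, 12, 25, 45 and 65 minutes after 1 uM compound was added to liver microsomes (0.5 mg/mL; dog, rat, human) with NADPH-regenerating cofactor, in duplicate. In vitro t1/2 converted to Clint.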
[4] = Human immunodeficiency virus 1, MT4, 120 h

| Compound | EC50 [1, 4] | Vd (in vivo) | RAT PO F (in vivo) | RAT IV CL (in vivo) | RAT IV T1/2 (in vivo) | 3H Human Predicted Cl. ([2]; human, 1 uM) | Human Pred Cl. ([3]; human, microsomes) | Rat. Pred. Cl. ([3]; rat, microsomes) | Dog. Pred. Cl. ([3]; microsomes) | EC50 [1] | 3H Human Predicted Cl. ([2]; tritiated analogs, human liver microsomes) | Human Pred Cl. ([3]; human liver microsomes 0.5 mg/mL, 1 uM compound, NADPH) | Rat. Pred. Cl. ([3]; rat liver microsomes 0.5 mg/mL, 1 uM compound, NADPH) |
| --- | --- | --- | --- | --- | --- | --- | --- | --- | --- | --- | --- | --- | --- |
| COC(=O)N[C@H](C(=O)N[C@@H](Cc1ccc(C#Cc2cnc(N3CC4CCC(C3)N4C3COC3)nc2)cc1)[C@@H](O)CN(Cc1c(F)cc(-c2ccn(CC(F)F)n2)cc1F)NC(=O)[C@@H](NC(=O)OC)C(C)(C)C(F)(F)F)C(C)(C)C(F)(F)F [Example 36, Methyl ((5S,8S,9S,14S)-11-(4-(1-(2,2-difluoroethyl)-1H-pyrazol-3-yl)-2,6-difluorobenzyl)-16,16,16-trifluoro-9-hydroxy-15,15-dimethyl-8-(4-((2-(8-(oxetan-3-yl)-3,8-diazabicyclo[3.2.1]octan-3-yl)pyrimidin-5-yl)ethynyl)benzyl)-3,6,13-trioxo-5-(1,1,1-trifluoro-2-methylpropan-2-yl)-2-oxa-4,7,11,12-tetraazahexadecan-14-yl)carbamate] | 3.68 nM | 5.99 L/kg | 16.4% | 5.33 mL/min/kg | 15.7 h | 0.1 | <0.11 L/H/kg | 0.27 L/H/kg | – | – | – | – | – |
| COC(=O)N[C@H](C(=O)N[C@@H](Cc1ccc(C#Cc2ccc(N3CC4CCC(C3)N4C3COC3)nc2)cc1)[C@@H](O)CN(Cc1c(F)cc(-c2ccn(CC(F)F)n2)cc1F)NC(=O)[C@@H](NC(=O)OC)C(C)(C)C(F)(F)F)C(C)(C)C(F)(F)F [Example 46, Methyl ((5S,10S,11S,14S)-8-(4-(1-(2,2-difluoroethyl)-1H-pyrazol-3-yl)-2,6-difluorobenzyl)-16,16,16-trifluoro-10-hydroxy-15,15-dimethyl-11-(4-((6-(8-(oxetan-3-yl)-3,8-diazabicyclo[3.2.1]octan-3-yl)pyridin-3-yl)ethynyl)benzyl)-3,6,13-trioxo-5-(1,1,1-trifluoro-2-methylpropan-2-yl)-2-oxa-4,7,8,12-tetraazahexadecan-14-yl)carbamate] | 4.34 nM | 4.22 L/kg | 13% | 7.5 mL/min/kg | 9.22 h | 0.04 | <0.11 L/H/kg | 0.19 L/H/kg | 1.64 L/H/kg | – | – | – | – |
| COC(=O)N[C@H](C(=O)NN(Cc1c(F)cc(-c2ccn(C(F)F)n2)cc1F)C[C@H](O)[C@H](Cc1ccc(C#Cc2ccc(N3CC4CCC(C3)N4C3COC3)nc2)cc1)NC(=O)[C@@H](NC(=O)OC)C(C)(C)C(F)(F)F)C(C)(C)C [Example 73, Methyl ((5S,8S,9S,14S)-11-(4-(1-(difluoromethyl)-1H-pyrazol-3-yl)-2,6-difluorobenzyl)-9-hydroxy-15,15-dimethyl-8-(4-((6-(8-(oxetan-3-yl)-3,8-diazabicyclo[3.2.1]octan-3-yl)pyridin-3-yl)ethynyl)benzyl)-3,6,13-trioxo-5-(1,1,1-trifluoro-2-methylpropan-2-yl)-2-oxa-4,7,11,12-tetraazahexadecan-14-yl)carbamate] | 4.72 nM | 3.34 L/kg | 35% | 5.33 mL/min/kg | 9.43 h | 0.09 | 0.13 L/H/kg | <0.18 L/H/kg | – | – | – | – | – |
| COC(=O)N[C@H](C(=O)N[C@@H](Cc1ccc(C#Cc2cnc(N3CC4CCC(C3)N4C3COC3)nc2)cc1)[C@@H](O)CN(Cc1c(F)cc(-c2ncccn2)cc1F)NC(=O)[C@@H](NC(=O)OC)C(C)(C)C(F)(F)F)C(C)(C)C(F)(F)F [Example 89, Methyl ((5S,8S,9S,14S)-11-(2,6-difluoro-4-(pyrimidin-2-yl)benzyl)-16,16,16-trifluoro-9-hydroxy-15,15-dimethyl-8-(4-((2-(8-(oxetan-3-yl)-3,8-diazabicyclo[3.2.1]octan-3-yl)pyrimidin-5-yl)ethynyl)benzyl)-3,6,13-trioxo-5-(1,1,1-trifluoro-2-methylpropan-2-yl)-2-oxa-4,7,11,12-tetraazahexadecan-14-yl)carbamate] | 3.32 nM | 3.53 L/kg | 44.2% | 5 mL/min/kg | 10.2 h | 0.08 | <0.11 L/H/kg | <0.18 L/H/kg | 1.67 L/H/kg | – | – | – | – |
| COC(=O)N[C@H](C(=O)N[C@@H](Cc1ccc(C#Cc2ccc(N3CC4CCC(C3)N4C3COC3)nc2)cc1)[C@@H](O)CN(Cc1c(F)cc(-c2ncccn2)cc1F)NC(=O)[C@@H](NC(=O)OC)C(C)(C)C(F)(F)F)C(C)(C)C(F)(F)F [Example 101, Methyl ((5S,8S,9S,14S)-11-(2,6-difluoro-4-(pyrimidin-2-yl)benzyl)-16,16,16-trifluoro-9-hydroxy-15,15-dimethyl-8-(4-((6-(8-(oxetan-3-yl)-3,8-diazabicyclo [3.2.1]octan-3-yl)pyridin-3-yl)ethynyl)benzyl)-3,6,13-trioxo-5-(1,1,1-trifluoro-2-methylpropan-2-yl)-2-oxa-4,7,11,12-tetraazahexadecan-14-yl)carbamate] | 4.22 nM | 6.07 L/kg | 38.4% | 8 mL/min/kg | 10 h | 0.08 | <0.11 L/H/kg | <0.18 L/H/kg | – | – | – | – | – |
| COC(=O)N[C@H](C(=O)N[C@@H](Cc1ccc(C#Cc2ccc(N3CC4CC(C3)N4C3COC3)nc2)cc1)[C@@H](O)CN(Cc1c(F)cc(-c2ccn(C(F)F)n2)cc1F)NC(=O)[C@@H](NC(=O)OC)C(C)(C)C(F)(F)F)C(C)(C)C(F)(F)F [Example 176, Methyl ((5S,8S,9S,14S)-11-(4-(1-(difluoromethyl)-1H-pyrazol-3-yl)-2,6-difluorobenzyl)-16,16,16-trifluoro-9-hydroxy-15,15-dimethyl-8-(4-((6-(6-(oxetan-3-yl)-3,6-diazabicyclo[3.1.1]heptan-3-yl)pyridin-3-yl)ethynyl)benzyl)-3,6,13-trioxo-5-(1,1,1-trifluoro-2-methylpropan-2-yl)-2-oxa-4,7,11,12-tetraazahexadecan-14-yl)carbamate] | 3.36 nM | – | – | – | – | 0.09 | <0.11 L/H/kg | 0.75 L/H/kg | – | – | – | – | – |
| COC(=O)N[C@H](C(=O)N[C@@H](Cc1ccc(-c2cnc(N3CC4CCC(C3)N4C3COC3)nc2)cc1)[C@@H](O)CN(Cc1c(F)cc(-c2ccn(C(F)F)n2)cc1F)NC(=O)[C@@H](NC(=O)OC)C(C)(C)C(F)(F)F)C(C)(C)C(F)(F)F [Example 199, Methyl ((5S,8S,9S,14S)-11-(4-(1-(difluoromethyl)-1H-pyrazol-3-yl)-2,6-difluorobenzyl)-16,16,16-trifluoro-9-hydroxy-15,15-dimethyl-8-(4-(2-(8-(oxetan-3-yl)-3,8-diazabicyclo[3.2.1]octan-3-yl)pyrimidin-5-yl)benzyl)-3,6,13-trioxo-5-(1,1,1-trifluoro-2-methylpropan-2-yl)-2-oxa-4,7,11,12-tetraazahexadecan-14-yl)carbamate] | 2.72 nM | 1.07 L/kg | 14.7% | 7.67 mL/min/kg | 2.09 h | 0.15 | <0.11 L/H/kg | 0.48 L/H/kg | 0.91 L/H/kg | – | – | – | – |
| COC(=O)N[C@H](C(=O)N[C@@H](Cc1ccc(-c2ccc(N3CC4CCC(C3)N4C3COC3)nc2)cc1)[C@@H](O)CN(Cc1c(F)cc(-c2ccn(C(F)F)n2)cc1F)NC(=O)[C@@H](NC(=O)OC)C(C)(C)C(F)(F)F)C(C)(C)C(F)(F)F [Example 208, Methyl ((5S,8S,9S,14S)-11-(4-(1-(difluoromethyl)-1H-pyrazol-3-yl)-2,6-difluorobenzyl)-16,16,16-trifluoro-9-hydroxy-15,15-dimethyl-8-(4-(6-(8-(oxetan-3-yl)-3,8-diazabicyclo[3.2.1]octan-3-yl)pyridin-3-yl)benzyl)-3,6,13-trioxo-5-(1,1,1-trifluoro-2-methylpropan-2-yl)-2-oxa-4,7,11,12-tetraazahexadecan-14-yl)carbamate] | 2.51 nM | – | – | – | – | 0.11 | 0.16 L/H/kg | 0.74 L/H/kg | – | – | – | – | – |
| Methyl ((5S,8S,9S,14S)-11-(4-(1-(difluoromethyl)-1H-pyrazol-3-yl)-2,6-difluorobenzyl)-16,16,16-trifluoro-9-hydroxy-15,15-dimethyl-8-(4-((6-(4-(oxetan-3-yl)piperazin-1-yl)pyridin-3-yl)ethynyl)benzyl)-3,6,3-trioxo-5-(1,1,1-trifluoro-2-methylpropan-2-yl)-2-oxa-4,7,11,12-tetraazahexadecan-14-yl)carbamate [Example 112] | – | – | – | – | – | – | – | – | – | 4.45 nM | 0.11 | <0.11 L/H/kg | 0.32 L/H/kg |
